From BigSolDB 2.1

OCc1cn(Cc2ccccc2)nn1
solubility (mole fraction)
Conditions	292.15 K	295.15 K	298.15 K	301.15 K	304.15 K	307.15 K	310.15 K
in ethanol	0.0566	0.0681	0.0833	0.103	0.129	0.158	0.198
in isopropanol	0.0322	0.039	0.047	0.0576	0.0707	0.0889	0.112
in methanol	0.122	0.146	0.172	0.2	0.222	0.262	0.3
in n-butanol	0.0342	0.0408	0.0481	0.0579	0.0695	0.0832	0.1
in n-propanol	0.0422	0.0502	0.0607	0.0742	0.0909	0.113	0.141
in water	0.00147	0.0017	0.00197	0.00237	0.0029	0.00356	0.00433
